Results published in article PMC11786751, “An SH3-binding allosteric modulator stabilizes the global conformation of the AML-associated Src-family kinase, Hck” (The Journal of Biological Chemistry, 2024).

Tests used:
Src = molecular target: T1, Src (Homo sapiens, UniProt P12931); test: SPR; format: binding
T1 construct: near-full-length (SH3-SH2-kinase-tail)

Hck [1] = molecular target: T2, Hck (Homo sapiens, UniProt P08631); test: 1H-15N HSQC NMR titration; also SPR (KD […], near-full-length) and HDX-MS; format: binding
T2 construct: SH3 domain (p59 Hck amino acids 80–144); also SH3-SH2-linker (84–261) and near-full-length Hck (84–524)

Lyn = molecular target: T3, Lyn (Homo sapiens, UniProt P07948); test: SPR; format: binding
T3 construct: near-full-length (SH3-SH2-kinase-tail)

Hck [2] = molecular target: T4, Hck (Homo sapiens, UniProt P08631, H284A/T285A/Q523E/Q524E/Q525I); test: kinetic kinase assay (ADP Quest), activation of the mutant kinase; format: biochemical
T4 construct: near-full-length Hck (p59 amino acids 84–524, modified tail YEEIP)

Hck [3] = molecular target: T2, Hck; test: 1H-15N HSQC NMR titration; also SPR (KD […], near-full-length), HDX-MS and kinase activation; format: binding

T1 sequence (P12931 2-536): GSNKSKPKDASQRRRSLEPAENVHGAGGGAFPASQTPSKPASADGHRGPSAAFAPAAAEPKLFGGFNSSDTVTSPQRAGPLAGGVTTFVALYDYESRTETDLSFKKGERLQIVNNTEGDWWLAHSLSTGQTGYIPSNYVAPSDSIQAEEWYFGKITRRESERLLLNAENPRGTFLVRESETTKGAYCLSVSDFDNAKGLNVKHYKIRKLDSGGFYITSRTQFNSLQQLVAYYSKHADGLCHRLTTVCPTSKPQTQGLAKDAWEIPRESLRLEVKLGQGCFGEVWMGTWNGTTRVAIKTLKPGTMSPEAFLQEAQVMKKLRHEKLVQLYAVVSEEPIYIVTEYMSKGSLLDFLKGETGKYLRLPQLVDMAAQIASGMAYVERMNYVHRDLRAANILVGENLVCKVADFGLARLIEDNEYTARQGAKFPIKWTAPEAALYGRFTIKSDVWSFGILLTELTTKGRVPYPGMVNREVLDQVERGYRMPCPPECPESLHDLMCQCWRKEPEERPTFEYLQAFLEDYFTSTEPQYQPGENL
T3 sequence (P07948 2-512): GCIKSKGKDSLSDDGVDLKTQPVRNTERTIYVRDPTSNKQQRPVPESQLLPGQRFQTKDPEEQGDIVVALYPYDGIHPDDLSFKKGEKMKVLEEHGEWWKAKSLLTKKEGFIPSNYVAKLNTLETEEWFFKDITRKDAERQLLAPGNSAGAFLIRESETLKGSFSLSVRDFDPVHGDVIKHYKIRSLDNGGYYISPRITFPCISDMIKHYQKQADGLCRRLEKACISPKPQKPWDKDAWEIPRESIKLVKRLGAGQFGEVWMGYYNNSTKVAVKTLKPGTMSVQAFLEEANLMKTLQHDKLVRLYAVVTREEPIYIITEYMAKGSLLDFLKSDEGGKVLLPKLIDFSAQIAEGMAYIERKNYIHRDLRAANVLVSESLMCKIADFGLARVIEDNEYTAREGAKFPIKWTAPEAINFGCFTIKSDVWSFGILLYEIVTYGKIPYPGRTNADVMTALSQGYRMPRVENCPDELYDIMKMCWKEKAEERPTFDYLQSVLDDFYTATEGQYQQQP
T2 sequence (P08631 75-139): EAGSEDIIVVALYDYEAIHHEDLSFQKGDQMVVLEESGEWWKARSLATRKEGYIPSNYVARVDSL
T4 sequence (P08631 79-526 H284A/T285A/Q523E/Q524E/Q525I): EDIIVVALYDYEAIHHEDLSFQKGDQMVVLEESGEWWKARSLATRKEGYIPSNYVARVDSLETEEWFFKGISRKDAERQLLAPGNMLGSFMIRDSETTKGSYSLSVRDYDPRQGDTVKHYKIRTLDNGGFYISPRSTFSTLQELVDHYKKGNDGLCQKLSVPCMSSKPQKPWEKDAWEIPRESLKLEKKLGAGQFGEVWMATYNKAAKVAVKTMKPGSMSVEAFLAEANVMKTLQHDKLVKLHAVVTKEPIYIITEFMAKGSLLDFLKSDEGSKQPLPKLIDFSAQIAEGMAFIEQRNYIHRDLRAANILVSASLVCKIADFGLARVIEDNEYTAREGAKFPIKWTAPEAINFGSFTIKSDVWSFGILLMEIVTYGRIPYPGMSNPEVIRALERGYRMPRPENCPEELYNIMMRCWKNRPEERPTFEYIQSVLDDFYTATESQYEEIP

Row | Kd (Src) [µM] | Kd (Hck [1]) [µM] | Kd (Lyn) [µM] | Kd (Hck [3]) [µM] | SMILES | kinetic kinase assay (ADP Quest), activation of the mutant kinase (Hck [2])
1 | 55 ± 2.18 | 42.6 ± 4.7 | 74.9 ± 19.9 |  | CC(C)Nc1ccnc(NCc2cccnc2Oc2ccc(F)cc2)n1 [PDA1] | Both PDA1 and PDA2 activated Hck-HTA (Fig. 7B), unlike WT Hck, which is only activated by PDA2
2 | 236 ± 18.1 |  | 180 ± 33.7 | 65.1 ± 3.1 | Cc1cnc(NCc2ccccc2-n2ccnc2)nc1N(C)C [PDA2] | 
